Source: patent US6806230B1, “Pyrimidine derivatives and herbicides containing them” (Kumiai Chemical Industry Co., Ltd., priority 1999, dated 2004)

Key:
Assay type in all cases: in vivo
[1] = test system: green foxtail (Se); assay: Test Example 2: herbicidal effects by upland soil treatment; conditions: dose 100 g active ingredient per 10 ares, examined on the 21st day after treatment, standards of Table 44;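 further: 0-5 growth inhibition grade; 5 = over 90%; 4 = 70-90%; 3 = 50-70%; 2 = 30-50%; 1 = 10-30%; 0 = under 10%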
Summary of the method: (§1)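 Pre-emergence test: barnyard grass and green foxtail sown in upland soil, then soil surface sprayed with wettable-powder formulation at 100 g active ingredient per 10 ares (100 l per 10 ares). Grown in greenhouse; herbicidal effect scored on a rating scale 21 days after treatment.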

[2] = test system: barnyard grass (Ec); assay: as above; design: scale not given here; conditions: dose 100 g active ingredient per 10 ares, examined on the 21st day after treatment, standards of Table 44
Summary of the method: as §1

[3] = test system: monochoria (Mo); assay: Test Example 1: herbicidal effects by flooded paddy field treatment; conditions: dose 100 gai/10a, examined on 21st day after treatment, index 0-5 per Table 44;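 further: 0-5 growth inhibition grade; 5 = over 90%; 4 = 70-90%; 3 = 50-70%; 2 = 30-50%; 1 = 10-30%; 0 = under 10%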
Summary of the method: (§2)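 Flooded paddy pre-emergence test: sowing into puddled soil under 3 cm water, then dropwise water-surface treatment the following day with diluted wettable powder at 100 g active ingredient per 10 ares. Greenhouse cultivation followed, and weeds were rated against a standard scale at 21 days.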

[4] = test system: barnyard grass (Eo); assay: as above; conditions: dose 100 gai/10a, examined on 21st day after treatment, index 0-5 per Table 44
Summary of the method: as §2

[5] = test system: barnyard grass (Ec); assay: Test Example 3: herbicidal effects by foliage treatment in upland field; design: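 0-5 growth inhibition grade; 5 = over 90%; 4 = 70-90%; 3 = 50-70%; 2 = 30-50%; 1 = 10-30%; 0 = under 10%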; conditions: dose 100 g active ingredient per 10 ares, examined on the 14th day after treatment
Summary of the method: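 Barnyard grass and green foxtail were grown in upland soil for 2 weeks in a greenhouse. A water-diluted wettable powder was sprayed over the foliage at 100 l per 10 ares, giving 100 g active ingredient per 10 ares. Herbicidal effect was scored on day 14 after treatment.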

[6] = test system: wheat (Tr); assay: Test Example 5: selectivity for a crop plant by soil treatment in upland field; design: scale not given here; conditions: dose 25 gai/10a, 21st day after treatment, index per Table 44
Procedure: (§3) In a 80 cm^2 plastic pot, upland soil was filled, and seeds of barnyard grass (Ec), green foxtail (Se), soybean (G1), wheat (Tr) and corn (Ze) were sown and covered with soil. A wettable powder prepared in accordance with Formulation Example 1 was diluted with water and uniformly applied to the soil surface by a small size spray at a rate of 100 l per 10 ares so that the dose of the active ingredient would be 25 g per 10 ares. Thereafter, cultivation was carried out in a green house, and on the 21st day after the treatment, the herbicidal effects were examined in accordance with the standards of Table 44.

[7] = test system: soybean (G1); assay: as above; design: scale not given here; conditions: dose 25 gai/10a, 21st day after treatment, index per Table 44
Procedure: as §3

[8] = test system: barnyard grass (Ec); assay: as above; design: scale not given here; conditions: dose 25 gai/10a, 21st day after treatment, index per Table 44
Procedure: as §3

[9] = test system: corn (Ze); assay: as above; design: scale not given here; conditions: dose 25 gai/10a, 21st day after treatment, index per Table 44
Procedure: as §3

[10] = test system: rice (Or); assay: Test Example 4: selectivity for a crop plant by flooded paddy field treatment; design: scale not given here; conditions: rice transplanted at second leaf stage; for Or (effect on crop plant rice, index): dose 25 g active ingredient per 10 ares, examined on the 21st day after treatment
Summary of the method: (§4)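 Steps: fill pot with paddy soil and puddle; sow weed seeds; transplant rice at second-leaf stage; flood to 3 cm. Next day, drip the water-diluted wettable powder onto the water (25 g a.i./10 ares). Grow in greenhouse and rate herbicidal effect on day 21.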

[11] = test system: monochoria (Mo); assay: as above; design: scale not given here; conditions: for Mo (herbicidal effects, index): dose 25 g active ingredient per 10 ares, examined on the 21st day after treatment
Summary of the method: as §4

[12] = test system: barnyard grass (Eo); assay: as above; design: scale not given here; conditions: for Eo (herbicidal effects, index): dose 25 g active ingredient per 10 ares, examined on the 21st day after treatment
Summary of the method: as §4
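Wherever Herbicidal effect index, Eo is given: 0-5 growth inhibition grade; 5 = over 90%; 4 = 70-90%; 3 = 50-70%; 2 = 30-50%; 1 = 10-30%; 0 = under 10%.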

Row | Compound | herbicidal effects, Se (green foxtail) [1] | herbicidal effects, Ec (barnyard grass) [2] | Herbicidal effect index, Mo [3] | Herbicidal effect index, Eo [4] | Ec (herbicidal effects, index) [5] | Tr (herbicidal effect index on crop) [6] | Gl (herbicidal effect index on crop) [7] | Ec (herbicidal effect index) [8] | Ze (herbicidal effect index on crop) [9] | Or (effect on crop plant rice, index) [10] | Mo (herbicidal effects, index) [11] | Eo (herbicidal effects, index) [12] | Or (herbicidal effect index on crop) ([10]; dose 25 gai/10a, 21st day after treatment, index per Table 44) | Mo (herbicidal effect index) ([11]; monochoria, dose 25 gai/10a, 21st day after treatment, index per Table 44) | Eo (herbicidal effect index) ([12]; barnyard grass, dose 25 gai/10a, 21st day after treatment, index per Table 44)
1 | CC(C)C(c1cncnc1C(F)(F)F)N(C)C(=O)Cc1ccccc1F (racemic) [Compound 1-100] | 5 | 5 | 5 | 5 | 5 | 2 | 0 | 5 | 2 | – | – | – | – | – | –
2 | CCC(C)C(c1cncnc1C(F)(F)F)N(C)C(=O)Cc1ccc(F)cc1 (mixture of isomers) [Compound 1-58] | 5 | 5 | 5 | 5 | 4 | 3 | 0 | 5 | 0 | – | – | – | – | – | –
3 | CCN(C(=O)Cc1ccc(Cl)cc1)C(c1cncnc1C(F)(F)F)C(C)C (racemic) [Compound 1-48] | 5 | 5 | 5 | 5 | 5 | 1 | 0 | 4 | 0 | 1 | 5 | 5 | – | – | –
4 | CN(C(=O)Cc1ccc(Cl)cc1)C(c1cncnc1C(F)(F)F)C(C)(C)C (racemic) [Compound 1-54] | 5 | 5 | 5 | 5 | 5 | 1 | 0 | 4 | 0 | 1 | 5 | 5 | – | – | –
5 | CCN(C(=O)Cc1ccc(C)cc1)C(c1cncnc1C(F)(F)F)C(C)C (racemic) [Compound 1-61] | 5 | 5 | 5 | 5 | 4 | 3 | 1 | 5 | 0 | 1 | 5 | 5 | – | – | –
6 | CCC(C)C(c1cncnc1C(F)(F)F)N(C)C(=O)Cc1ccc(Cl)cc1 (mixture of isomers) [Compound 1-59] | 5 | 5 | 5 | 5 | 4 | 1 | 0 | 5 | 0 | 0 | 5 | 5 | – | – | –
7 | CCC(c1cncnc1C(F)(F)F)N(C)C(=O)Cc1ccc(F)cc1 (racemic) [Compound 1-33] | 5 | 5 | 5 | 5 | – | 2 | 0 | 4 | 1 | 1 | 5 | 5 | – | – | –
8 | CCCN(C(=O)Cc1ccc(C#N)cc1)C(c1cncnc1C(F)(F)F)C(C)C (racemic) [Compound 1-99] | 5 | 5 | 5 | 5 | – | 3 | 0 | 4 | 0 | – | – | – | 1 | 5 | 5
9 | CC(C)C(c1cncnc1C(F)(F)F)N(C)C(=O)Cc1ccc(OC(F)(F)F)cc1 (racemic) [Compound 1-95] | 5 | 5 | 5 | 5 | 5 | 0 | 1 | 5 | 0 | – | – | – | – | – | –
10 | CCCN(C(=O)Cc1ccc(Cl)cc1)C(c1cncnc1C(F)(F)F)C(C)C (racemic) [Compound 1-49] | 4 | 5 | 5 | 5 | – | 0 | 1 | 5 | 3 | 0 | 5 | 5 | – | – | –
11 | Cc1ncncc1C(C(C)C)N(C)C(=O)Cc1ccc(Cl)cc1 (racemic) [Compound 1-56] | 5 | 5 | 5 | 5 | 4 | 4 | 0 | 5 | 3 | – | – | – | – | – | –
12 | CC(C)C(c1cncnc1C(F)(F)F)N(C)C(=O)C=Cc1ccccc1 (racemic) [Compound 1-85] | 5 | 5 | 5 | 5 | – | 1 | 0 | 4 | 0 | 0 | 5 | 5 | – | – | –
